Measured values published in patent US11926604B2, “Myelination stimulator compounds, and methods of treatment” (priority 2018, dated 2024).

Legend:
[1] = system: mice; assay: Single-dose dose-range and toxicity study in mice; format: in vivo
Procedure: (§1) Dose-range and toxicity studies in mice. In consultation with UF veterinary staff and the IACUC committee, toxicity studies were performed. […] Compounds were dissolved in 100% DMSO and diluted with 0.9% NaCl before injecting. The IP route (100-500 ul) was used to treat 8-10 week old female adults. We used females because in some studies they are more sensitive to toxins. Experiments were performed with the 2 compounds that had the largest effect on myelination in the brain slice cultures, including K261-0298 and K261-0310. Mice were treated with a single dose.

[2] = format: physicochemical
Procedure: as §1

[3] = system: mouse brain slices; assay: Myelination in brain slices (MBP, O1 immunostaining); format: cell-based; conditions: brain slices incubated 5 days in culture, MBP labeling
Procedure: FIG. 2. depicts the effect of compounds on myelination stimulation. FIG. 2. A. Myelin basic protein labeling (green) of brain slices incubated with compounds for 5 days in culture. *, p<0.05 vs vehicle. ANOVA. Data shown are representative at least 3 slices per treatment group per study, in at least 3 separate studies. (B) Vehicle, (C) K-261-0298. Note increased labeling.
Before undertaking in vivo testing, we assessed the ability of the lead compounds to promote OL development and myelination using mouse brain slices, as reported^62,63. Each compound and concentration was tested in triplicate, in at least three separate studies. Slices were collected at 1, 5, 9, or 13 days in vitro, fixed in 4% paraformaldehyde, and used for immunohistochemical staining.

[4] = system: mice; assay: Multiday toxicity study, 10 days; format: in vivo, mouse; conditions: 100 mg/kg for 10 days
[5] = system: mouse pups; assay: Ten-day treatment of mouse pups from P2, safety and pulmonary hypertension; format: in vivo
Procedure: In addition, we also treated mouse pups starting on day P2 for ten days with 100 mg/kg/day K261-0298 or vehicle. […] We also evaluated for possible pulmonary hypertension.

[6] = Toxicokinetic sample collection, HPLC compound levels; format: in vivo, mouse; conditions: single i.p. injection of 100 mg/kg, mice
Procedure: Toxicokinetic Sample Collection: After the above studies, compound kinetics were examined. Male and female mice at approximately 60 days of age were used (n=8 mice per sex). […] Samples were collected prior to dose and at 30 minutes, 2, 4, 8 and 24 hours after. Compound levels were determined by High Pressure Liquid Chromatography (HPLC) at UF.

[7] = system: C57BL/6 mice; assay: Myelination in newborn mice in normoxia; format: in vivo, mouse
From the text: FIG. 3. depicts results of studies of myelination in newborn mice in normoxia. FIG. 3. Myelin basic protein (MBP), O4 and O1 labeling of coronal forebrain at level of corpus callosum (cc) of newborn mice treated with vehicle or drug (K261-298) from P2 to P12 in room air. Data shown are representative of at least 5 pups per treatment group. cc, corpus callosum. Scale bar=100 um.
After adult studies, pups were studied at developmental stages equivalent to preterm infants to assess effects on myelination, as reported by us^54. C57BL/6 mice were reared in room air from P2 to P12, and treated daily with the compound or vehicle. […] K261-0298 (100 mg/kg) was given by injection, as above.

[8] = system: hypoxia-exposed mouse; assay: Chronic sublethal hypoxia model of PWMI, ventriculomegaly; format: in vivo; set-up: ventricle size: unit not given here
From the text: FIG. 4. Depicts results of studies of myelination in an animal model of white matter injury. […] Dark-field, hemi-coronal sections at the same brain levels shown. Data shown are representative of 4 pups per treatment group. Arrow depict lateral ventricles. ac, anterior commisure. Note smaller ventricle size in the drug-treated pup. Scale bar=500 um.
We have initiated preclinical testing using the chronic sublethal hypoxia model of PWMI. Mice were reared under hypoxic or normoxic conditions from P2 to P12, as reported 64. At P2, litters were placed in a Plexiglas chamber in which ambient O2 levels are maintained at 10.0±0.3% O2. Normoxic animals were exposed to room air. To date we tested K261-0298 at 100 mg/kg, and mice were treated once per day from P2 to P12. At the end of the treatment period mice were examined for ventriculomegaly, as reported^64,65. […] Compared with normoxic controls^64,66, ventricle sizes in the drug-treated hypoxia animals were similar.

[9] = system: C57BL/6 mice; conditions: cited from earlier work
[10] = diazoxide, basis for dose choice; cited from earlier work
[11] = system: model of PWMI; conditions: neonatal therapy; cited from earlier work
[12] = pups from P2, ten days, 100 mg/kg/day
[13] = 100 mg/kg daily P2 to P12, room air, n=6

For `CC(=O)c1ccc(N2CCN(C(=O)CCC3=Nc4ccccc4S(=O)(=O)N3)CC2)cc1` [Compound K261-0310, 1-(4-(4-acetylphenyl)piperazin-1-yl)-3-(1,1-dioxido-2H-benzo[e][1,2,4]thiadiazin-3-yl)propan-1-one], which “adverse effects at behavioral or gross necropsy levels” value ([1]; mouse, in vivo, ip, 50 mg/kg) is on record?
The value was “no adverse effects observed”.

What about the “solubility behaviour in dosing solution” value [2] of the same molecule?
Its value is “precipitated out of solution at higher concentrations”.

Which myelination in vitro [3] does the source give for `CCOCCCNC(=O)CCC1=Nc2ccccc2S(=O)(=O)N1` [Compound K261-0298, 3-(1,1-dioxido-2H-benzo[e][1,2,4]thiadiazin-3-yl)-N-(3-ethoxypropyl)propanamide] here?
The myelination in vitro was “stimulates myelination in vitro”.

What about the tolerated single dose ([1]; IP, 8-10 week old female mice) of the same molecule?
The tolerated single dose was “up to 400 mg/kg”.

What about the “adverse effects on animal behavior or weight” value [4] of the same molecule?
Its value is “no adverse effects on animal behavior or weight loss”.

And the “histopathological analysis of major organs” value [4]?
Its value is “did not reveal evidence of damage in any major organs”.

And the gross necropsy ([4]; 5 treated mice)?
Its gross necropsy is “no gross malformations were observed”.

And the “behavior or weight gain versus vehicle” value [5, 12]?
The value was “without any differences in behavior or weight gain”.

What about the survival [5, 12] of the same molecule?
Its survival is “all survived to the end of treatment”.

What about the pulmonary hypertension ([5]; ten days of treatment in pups, juveniles, adults) of the same molecule?
Its pulmonary hypertension is “does not appear that this compound induces pulmonary hypertension”.

What about the half-life ([6]; both sexes, mouse, in vivo, ip, read-out: circulating half-life (converted)) of the same molecule?
The half-life was 2.2 h.

And the peak drug levels [6]?
Its peak drug levels is 21.5 ± 2.3 µM.

And the “decrease in O4 labeling vs. vehicle” value [7, 13]?
The value was 44+/−4%.

And the “increase in MBP labeling vs. vehicle” value [7, 13]?
The value was 27+/−4%.

And the “increase in O1 labeling vs. vehicle” value [7, 13]?
The value was 26+/−5%.

And the “O1 labeling (FIG. 3)” value ([7]; P2 to P12 in room air, p<0.02)?
Its value is “increase in O1 labeling”.

What about the “O4 expression (FIG. 3)” value ([7]; P2 to P12 in room air, p<0.02) of the same molecule?
Its value is “reduction in O4 expression”.

And the “bioavailability to the brain / blood-brain-barrier penetration” value ([7]; inferred from changes in CNS myelination)?
Its value is “suggests that there is bioavailability of the compound to the brain”.

And the “ventricle sizes compared with normoxic controls” value ([8]; drug-treated hypoxia animals)?
The value was “similar”.

And the ventricle size ([8]; hypoxia, 100 mg/kg once per day P2 to P12, n=4)?
Its ventricle size is 0.0054+/−0.00013.

What about the ventriculomegaly vs. vehicle ([8]; hypoxia, 100 mg/kg once per day P2 to P12, p<0.03, 100 mg/kg) of the same molecule?
The ventriculomegaly vs. vehicle was “marked reduction in ventriculomegaly”.

And the “solubility behaviour in dosing solution” value [2]?
Its value is “more favorable solubility properties”.

Which results are given for `CC1=NS(=O)(=O)c2cc(Cl)ccc2N1` [diazoxide]?
myelination in room air (earlier diazoxide studies) [9]: increased myelination; LD50 [10]: 265 to 392 mg/kg; myelination [11]: markedly improves myelination; neurocognitive function [11]: improves neurocognitive function; ventriculomegaly [11]: reduces ventriculomegaly
